Consider one compound from ChEMBL document CHEMBL6177996 (J Med Chem, 2025).

Usually solubility stands for the dissolved amount per volume that the medium holds. A higher solubility goes with a readily soluble substance.

The nature of this data set: physchem. The conditions noted are these: water.

In brackets after ≈: the same amount, converted by molar mass.

Compound `C=CC(=O)NCc1cc(C(=O)NCc2c(SC)cc(C)[nH]c2=O)c(C)c(N(CC)C2CCOCC2)c1` came in with a solubility of 166 µg/mL (≈ 324 µM).
